Results reported in PMC9127186, “Molecular Basis Underlying Hepatobiliary and Renal Excretion of Phenolic Acids of Salvia miltiorrhiza Roots (Danshen)” (Frontiers in Pharmacology, 2022).

Key:
[1] = biological target: human MRP2 (Homo sapiens, UniProt Q92887); assay: Vesicular transport assay, inside-out membrane vesicles expressing human MRP2; settings: for TransportATP/TransportAMP ratio (net transport ratio): 10 min
Procedure: (§1) Inside-out membrane vesicles (5 mg protein/mL), prepared from insect cells expressing human multidrug resistance-associated protein (MRP) 2, MRP3, MRP4, breast cancer resistance protein (BCRP), bile salt export pump (BSEP), and multidrug resistance protein (MDR) one and rat Mrp2, Mrp4, Bcrp, and Bsep, and vesicles (5 mg protein/mL; prepared from the insect cells expressing no ABC transporter; serving as negative control) were obtained from Genomembrane (Kanazawa, Japan).
(§2) The test Danshen compounds at 100 µM final concentration were separately incubated with the membrane vesicles for 10 min. Buffer C (50 mM MOPS-tris, 70 mM KCl, 7.5 mM MgCl2, pH 7.0) was used for preincubation and incubation, while buffer D (40 mM MOPS-tris, 70 mM KCl, pH 7.0) was used for vesicle washing. The transport rate (pmol/mg protein/min) of the test Danshen compound was calculated using Equation (2): Transport=(CV×VV)/T/WV (2) where C V, V V, T, and W V represent concentration of the compound in vesicular lysates supernatant (μM), volume of the lysates (μL), incubation time (10 min), and amount of vesicle protein amount per well (0.05 mg), respectively. Differential transport of the test Danshen compound between ATP-containing vesicles and AMP-containing vesicles was defined as net transport ratio (TransportATP/TransportAMP ratio). […] All the incubation samples were analyzed by liquid chromatography/mass spectrometry.

[2] = biological target: human MRP3 (Homo sapiens, UniProt O15438); assay: Vesicular transport assay, inside-out membrane vesicles expressing human MRP3; settings: 10 min
Sequence of human MRP3 (O15438 whole entry): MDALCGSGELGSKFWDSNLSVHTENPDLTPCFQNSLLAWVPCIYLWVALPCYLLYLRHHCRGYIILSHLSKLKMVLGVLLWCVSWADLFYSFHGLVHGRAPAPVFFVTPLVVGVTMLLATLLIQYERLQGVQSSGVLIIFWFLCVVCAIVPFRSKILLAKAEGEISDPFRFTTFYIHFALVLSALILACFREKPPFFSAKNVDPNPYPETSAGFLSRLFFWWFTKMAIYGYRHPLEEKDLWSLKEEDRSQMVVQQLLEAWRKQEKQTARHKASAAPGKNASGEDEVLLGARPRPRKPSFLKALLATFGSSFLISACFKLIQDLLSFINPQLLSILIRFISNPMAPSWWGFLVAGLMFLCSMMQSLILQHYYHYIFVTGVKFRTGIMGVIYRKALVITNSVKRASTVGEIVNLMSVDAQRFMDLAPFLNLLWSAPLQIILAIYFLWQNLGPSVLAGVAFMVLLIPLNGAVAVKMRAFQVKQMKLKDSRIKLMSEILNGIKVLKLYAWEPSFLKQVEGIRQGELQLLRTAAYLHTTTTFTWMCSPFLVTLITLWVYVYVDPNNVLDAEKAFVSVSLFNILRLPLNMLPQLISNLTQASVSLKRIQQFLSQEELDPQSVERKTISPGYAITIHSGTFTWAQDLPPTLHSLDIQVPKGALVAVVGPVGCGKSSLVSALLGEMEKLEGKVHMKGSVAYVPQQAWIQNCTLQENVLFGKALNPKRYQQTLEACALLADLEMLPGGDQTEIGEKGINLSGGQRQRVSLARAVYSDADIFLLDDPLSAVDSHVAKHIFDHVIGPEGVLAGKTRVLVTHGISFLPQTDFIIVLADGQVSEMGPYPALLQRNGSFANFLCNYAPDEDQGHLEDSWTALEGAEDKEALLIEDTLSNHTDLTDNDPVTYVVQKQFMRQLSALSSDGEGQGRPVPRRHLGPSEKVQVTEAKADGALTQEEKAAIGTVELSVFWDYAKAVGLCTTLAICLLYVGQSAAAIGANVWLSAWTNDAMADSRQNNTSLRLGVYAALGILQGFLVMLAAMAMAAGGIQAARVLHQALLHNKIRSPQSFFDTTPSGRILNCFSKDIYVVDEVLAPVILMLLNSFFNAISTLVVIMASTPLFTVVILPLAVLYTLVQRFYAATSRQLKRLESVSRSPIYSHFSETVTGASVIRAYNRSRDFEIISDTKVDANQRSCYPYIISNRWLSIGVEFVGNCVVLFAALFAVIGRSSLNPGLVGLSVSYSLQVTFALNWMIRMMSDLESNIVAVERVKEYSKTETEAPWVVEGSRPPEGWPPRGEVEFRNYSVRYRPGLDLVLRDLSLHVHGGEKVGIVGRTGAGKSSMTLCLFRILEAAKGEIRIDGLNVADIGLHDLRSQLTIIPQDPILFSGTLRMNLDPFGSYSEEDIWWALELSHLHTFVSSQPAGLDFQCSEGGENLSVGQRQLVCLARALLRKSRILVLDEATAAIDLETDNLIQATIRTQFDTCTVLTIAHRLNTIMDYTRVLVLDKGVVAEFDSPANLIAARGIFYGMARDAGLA
Procedure: as §1, §2

[3] = biological target: human MDR1 (Homo sapiens, UniProt P08183); assay: Vesicular transport assay, inside-out membrane vesicles expressing human MDR1; settings: 10 min
Sequence of human MDR1 (P08183 whole entry): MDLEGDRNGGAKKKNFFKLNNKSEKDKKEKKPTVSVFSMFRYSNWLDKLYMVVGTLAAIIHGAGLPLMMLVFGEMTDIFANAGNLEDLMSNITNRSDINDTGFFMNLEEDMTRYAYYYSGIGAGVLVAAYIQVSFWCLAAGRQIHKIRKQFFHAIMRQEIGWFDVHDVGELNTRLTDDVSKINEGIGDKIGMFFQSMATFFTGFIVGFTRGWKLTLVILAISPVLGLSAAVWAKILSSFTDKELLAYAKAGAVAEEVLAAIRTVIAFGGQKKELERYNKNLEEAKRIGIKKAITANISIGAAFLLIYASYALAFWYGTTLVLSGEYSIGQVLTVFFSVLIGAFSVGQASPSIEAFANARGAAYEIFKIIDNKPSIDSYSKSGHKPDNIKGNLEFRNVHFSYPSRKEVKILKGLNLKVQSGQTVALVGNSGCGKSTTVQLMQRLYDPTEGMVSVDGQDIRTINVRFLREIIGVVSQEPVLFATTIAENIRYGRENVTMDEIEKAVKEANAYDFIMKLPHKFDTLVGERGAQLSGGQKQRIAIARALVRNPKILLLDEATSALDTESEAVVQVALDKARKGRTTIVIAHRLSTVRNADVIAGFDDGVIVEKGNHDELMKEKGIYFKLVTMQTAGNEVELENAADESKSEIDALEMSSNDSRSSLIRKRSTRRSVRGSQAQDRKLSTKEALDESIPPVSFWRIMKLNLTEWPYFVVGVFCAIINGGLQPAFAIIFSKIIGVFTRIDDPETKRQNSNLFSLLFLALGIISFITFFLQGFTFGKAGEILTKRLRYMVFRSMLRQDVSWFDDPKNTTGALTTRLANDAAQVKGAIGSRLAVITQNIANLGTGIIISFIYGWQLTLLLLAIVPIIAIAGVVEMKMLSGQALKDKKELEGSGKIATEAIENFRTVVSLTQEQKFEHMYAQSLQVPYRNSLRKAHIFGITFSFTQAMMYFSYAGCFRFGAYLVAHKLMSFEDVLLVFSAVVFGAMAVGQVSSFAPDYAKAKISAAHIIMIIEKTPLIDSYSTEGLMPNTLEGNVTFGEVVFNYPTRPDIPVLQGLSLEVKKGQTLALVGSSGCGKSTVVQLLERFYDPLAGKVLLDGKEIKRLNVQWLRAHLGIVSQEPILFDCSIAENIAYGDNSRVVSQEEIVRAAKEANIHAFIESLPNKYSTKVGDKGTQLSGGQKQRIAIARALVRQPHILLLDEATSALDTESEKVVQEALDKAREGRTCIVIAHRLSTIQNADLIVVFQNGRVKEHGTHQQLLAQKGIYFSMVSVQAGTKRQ
Procedure: as §1, §2

[4] = biological target: T1, human MRP4 (Homo sapiens, UniProt O15439); assay: Vesicular transport assay, inside-out membrane vesicles expressing human MRP4; settings: for TransportATP/TransportAMP ratio (net transport ratio): 10 min
T1 sequence (O15439 1-1325): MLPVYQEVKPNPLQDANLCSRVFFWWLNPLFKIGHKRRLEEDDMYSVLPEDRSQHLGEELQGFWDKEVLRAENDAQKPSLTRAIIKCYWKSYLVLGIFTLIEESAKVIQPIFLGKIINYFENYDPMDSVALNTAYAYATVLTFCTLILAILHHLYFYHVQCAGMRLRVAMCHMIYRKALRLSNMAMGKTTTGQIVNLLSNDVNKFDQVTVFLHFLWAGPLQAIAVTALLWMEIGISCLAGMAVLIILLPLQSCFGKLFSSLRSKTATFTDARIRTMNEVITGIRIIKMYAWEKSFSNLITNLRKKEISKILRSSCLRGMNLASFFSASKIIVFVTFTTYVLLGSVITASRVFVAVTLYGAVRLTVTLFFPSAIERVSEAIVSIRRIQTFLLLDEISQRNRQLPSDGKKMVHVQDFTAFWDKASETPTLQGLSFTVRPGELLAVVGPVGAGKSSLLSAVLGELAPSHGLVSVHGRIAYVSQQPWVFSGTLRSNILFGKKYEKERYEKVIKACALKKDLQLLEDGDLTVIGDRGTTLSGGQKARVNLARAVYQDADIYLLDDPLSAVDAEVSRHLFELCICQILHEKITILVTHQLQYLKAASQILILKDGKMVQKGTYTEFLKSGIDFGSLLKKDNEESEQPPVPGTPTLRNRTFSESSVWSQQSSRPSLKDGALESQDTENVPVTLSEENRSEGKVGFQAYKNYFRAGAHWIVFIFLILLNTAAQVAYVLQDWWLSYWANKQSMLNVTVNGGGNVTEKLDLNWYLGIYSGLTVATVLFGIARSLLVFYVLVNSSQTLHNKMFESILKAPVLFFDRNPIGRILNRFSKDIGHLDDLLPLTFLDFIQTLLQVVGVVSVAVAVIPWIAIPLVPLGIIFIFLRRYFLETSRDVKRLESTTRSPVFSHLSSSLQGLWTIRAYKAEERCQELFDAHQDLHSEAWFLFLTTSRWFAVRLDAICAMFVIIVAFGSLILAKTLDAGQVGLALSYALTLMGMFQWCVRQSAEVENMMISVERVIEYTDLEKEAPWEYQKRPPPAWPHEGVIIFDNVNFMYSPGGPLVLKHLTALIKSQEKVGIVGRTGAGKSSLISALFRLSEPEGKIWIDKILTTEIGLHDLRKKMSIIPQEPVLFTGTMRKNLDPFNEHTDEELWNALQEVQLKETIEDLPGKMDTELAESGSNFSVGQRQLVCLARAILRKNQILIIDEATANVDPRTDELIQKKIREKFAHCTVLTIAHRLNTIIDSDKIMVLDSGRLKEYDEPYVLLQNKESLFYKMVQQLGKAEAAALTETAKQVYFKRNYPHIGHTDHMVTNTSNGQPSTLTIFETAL
Procedure: as §1, §2

[5] = Danshen phenolic acid at 100 μM final concentration, human MRP2 vesicles
[6] = Danshen phenolic acid at 100 μM final concentration, human MRP3 vesicles
[7] = Danshen phenolic acid at 100 μM final concentration, human MDR1 vesicles
[8] = Danshen phenolic acid at 100 μM final concentration, human MRP4 vesicles

Sequence of human MRP2 (Q92887 whole entry): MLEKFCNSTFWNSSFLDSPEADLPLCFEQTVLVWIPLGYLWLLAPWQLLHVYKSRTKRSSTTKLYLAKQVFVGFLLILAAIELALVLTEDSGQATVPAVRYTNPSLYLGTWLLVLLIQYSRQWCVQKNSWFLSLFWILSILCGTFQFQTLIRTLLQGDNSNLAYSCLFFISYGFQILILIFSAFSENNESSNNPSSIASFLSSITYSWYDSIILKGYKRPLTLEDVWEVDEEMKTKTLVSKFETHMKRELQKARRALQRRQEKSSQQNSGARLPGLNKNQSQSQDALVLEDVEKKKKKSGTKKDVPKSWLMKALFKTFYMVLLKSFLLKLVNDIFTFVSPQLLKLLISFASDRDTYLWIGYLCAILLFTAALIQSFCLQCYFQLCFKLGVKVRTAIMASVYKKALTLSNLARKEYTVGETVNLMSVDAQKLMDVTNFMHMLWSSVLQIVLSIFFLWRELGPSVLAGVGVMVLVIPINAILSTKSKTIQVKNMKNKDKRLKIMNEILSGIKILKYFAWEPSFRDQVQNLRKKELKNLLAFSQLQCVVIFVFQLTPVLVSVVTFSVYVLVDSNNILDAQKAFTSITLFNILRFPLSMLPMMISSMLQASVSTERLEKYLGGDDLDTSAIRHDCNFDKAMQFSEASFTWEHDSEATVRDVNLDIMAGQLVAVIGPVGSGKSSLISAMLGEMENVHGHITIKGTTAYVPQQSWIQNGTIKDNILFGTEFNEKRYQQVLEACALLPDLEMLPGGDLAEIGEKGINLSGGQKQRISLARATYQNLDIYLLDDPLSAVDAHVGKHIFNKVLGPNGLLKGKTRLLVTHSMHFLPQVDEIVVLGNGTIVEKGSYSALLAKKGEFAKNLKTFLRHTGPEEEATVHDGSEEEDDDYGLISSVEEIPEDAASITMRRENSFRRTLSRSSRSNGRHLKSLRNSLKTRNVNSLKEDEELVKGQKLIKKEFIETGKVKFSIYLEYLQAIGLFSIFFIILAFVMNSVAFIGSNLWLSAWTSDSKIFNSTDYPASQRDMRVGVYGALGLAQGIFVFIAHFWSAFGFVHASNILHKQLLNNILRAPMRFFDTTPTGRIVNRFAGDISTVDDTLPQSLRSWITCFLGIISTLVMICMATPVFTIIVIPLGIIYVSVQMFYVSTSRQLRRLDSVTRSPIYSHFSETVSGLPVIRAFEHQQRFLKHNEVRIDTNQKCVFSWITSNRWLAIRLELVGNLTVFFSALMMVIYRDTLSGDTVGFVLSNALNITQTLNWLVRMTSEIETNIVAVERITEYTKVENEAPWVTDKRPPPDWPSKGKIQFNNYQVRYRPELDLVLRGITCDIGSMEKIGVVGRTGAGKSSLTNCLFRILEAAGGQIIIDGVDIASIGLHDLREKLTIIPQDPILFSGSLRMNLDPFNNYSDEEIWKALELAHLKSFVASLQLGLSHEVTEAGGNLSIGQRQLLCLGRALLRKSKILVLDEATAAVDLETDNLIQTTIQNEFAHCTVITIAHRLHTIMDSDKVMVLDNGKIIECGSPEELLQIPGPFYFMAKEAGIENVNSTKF

Compound | substrate of human MRP2 [1] | TransportATP/TransportAMP ratio (net transport ratio) [1, 5] | TransportATP/TransportAMP ratio (net transport ratio) [2, 6] | TransportATP/TransportAMP ratio (net transport ratio) [3, 7] | TransportATP/TransportAMP ratio (net transport ratio) [4, 8] | TransportATP/TransportAMP ratio (net transport ratio) ([1]; human, 100 μM, pH 7) | TransportATP/TransportAMP ratio (net transport ratio) ([2]; human, 100 μM, pH 7) | TransportATP/TransportAMP ratio (net transport ratio) ([3]; human, 100 μM, pH 7) | TransportATP/TransportAMP ratio (net transport ratio) ([4]; human, 100 μM, pH 7) | substrate of human MRP4 [4]
O=C(/C=C/c1ccc(O)c2c1[C@H](C(=O)O)[C@@H](c1ccc(O)c(O)c1)O2)O[C@H](Cc1ccc(O)c(O)c1)C(=O)O [Lithospermic acid, lithospermic acid] | substrates | 5.02 ± 1.67 | 1.72 ± 0.28 | 1.26 ± 0.09 | 1.36 ± 0.14 | – | – | – | – | –
O=C(O)c1ccc(O)c(O)c1 [Protocatechuic acid, protocatechuic acid] | – | 0.94 ± 0.31 | 1.25 ± 0.08 | 0.93 ± 0.04 | 1.25 ± 0.14 | – | – | – | – | –
O=C(/C=C/c1ccc(O)c(O)c1)O[C@H](Cc1ccc(O)c(O)c1)C(=O)O [Rosmarinic acid, rosmarinic acid] | – | – | – | – | – | 1.13 ± 0.34 | 1.38 ± 0.01 | 1.04 ± 0.18 | 1.99 ± 0.08 | –
O=C(/C=C/c1ccc(O)c(O)c1/C=C/c1ccc(O)c(O)c1)O[C@H](Cc1ccc(O)c(O)c1)C(=O)O [Salvianolic acid A, salvianolic acid A] | – | – | – | – | – | 1.42 ± 0.31 | 1.54 ± 0.23 | 1.26 ± 0.05 | 1.56 ± 0.05 | –
O=C(O)Cc1c(/C=C/C(=O)O[C@H](Cc2ccc(O)c(O)c2)C(=O)O)ccc(O)c1O [Salvianolic acid D, salvianolic acid D] | – | 1.51 ± 0.73 | 1.35 ± 0.30 | 0.92 ± 0.23 | 5.27 ± 0.51 | – | – | – | – | substrate
salvianolic acid B | substrates | 6.21 ± 1.32 | 1.47 ± 0.33 | 1.66 ± 0.12 | 1.99 ± 0.06 | – | – | – | – | –
